Experimental data: paper PMC6906431, “Selective small molecule PARG inhibitor causes replication fork stalling and cancer cell death” (Nature Communications, 2019)
Where “and” joins values, the source holds several entries; their conditions need not be identical. Equal entries are not always repeated.

Experiments:
[1] = Sulforhodamine B (SRB) cytotoxicity assay; conditions: human, A172 glioblastoma cells
Protocol: (§1) Normalized % viabilities are plotted against log concentration. Error bars show the percent coefficient of variation. […] Mann-Whitney test was used to generate the p-value. The DNA spread assay is the representation of two independently repeated experiments. Source Data are provided as a Source Data file.
(§2) Cells were plated in 96-well plates, treated as designated in reduced 5% FBS and fixed with trichloroacetic acid after 72 h, as previously described by[43]. […] Colorimetric or fluorescence analysis was performed in a FlexStation 3, using SoftMax Pro 7.0, Molecular Devices. Normalized graphs were generated with Prism 8 software, non-linear 4-parameter data fitting was performed for IC50 calculation.

[2] = test system: A172 glioblastoma cells; test: Sulforhodamine B (SRB) cytotoxicity assay; conditions: Homo sapiens, A 172, 72 h
Protocol: as §1, §2

[3] = test system: PC3 cells; test: Clonogenic survival assay; format: cell-based, human; conditions: for surviving colonies, Replicates: two weeks
Protocol: (§3) Fig. 6 Selective inhibition of PARG by xanthine derivative JA2131. a Clonogenic survival assays of PC3, MDA-MB-231, and MCF-7 cells treated with PARGi. Cells were treated with either DMSO or 10 µM JA2131 for 2 h, irradiated with 3 Gy (MDA-MB-231 and MCF-7), 7 Gy (PC3) IR and grown for ~2 weeks, then colonies were fixed with methanol and stained with crystal violet. The results of three independent experiments are shown. Error bars = the standard error of the mean (SEM). b dose-response of JA2131 in MDA-MB-231 cells with and without IR. Cells were treated with designated concentrations of JA2131 for 2 h and then either left untreated or exposed to 3 Gy IR and allowed to recover for 1 h before lysis. Total protein was immunoblotted with anti-PAR antibody (upper panel), stripped and reprobed with anti-PCNA as a loading control. c MDA-MB-231 cells with stable scrambled shRNA (WT) or stable PARG shRNA, knockdown (KD), were treated with 5 μM JA2131 for 2 h, lysed and then total lysates were immunoblotted for anti-PAR (upper panel) followed by anti-PARG (upper middle panel), anti-PARP1 (lower middle panel) and anti-actin (bottom panel) antibody. […] Stable cells with scramble shRNA (control) and shPARG (PARG-KD) cells were treated with an increasing concentration of JA2131 for growth inhibitory IC50 determination. The data was normalized against 100% survival at the lowest inhibitor concentration. Error bars show the percent coefficient of variation. Equivalent concentrations of DMSO were used as a negative control. e The cytotoxicity of JA2131 along with PDD, Veliparib and Doxorubicin against MRC-5 cells. Error bars show the percent coefficient of variation. f CETSA for in-cell JA2131 target engagement. Normalized anti-PARG western blot intensities of three independent experiments were fitted as above and the estimated aggregation temperature (Tagg) is shown in the tabulated insert. Source Data are provided as a Source Data file.
(§4) PC3, MDA-MB-231 cells were maintained in RPMI 1640, MCF-7 cells in Eagle’s Minimum Essential Medium (EMEM), MRC-5 cells in Eagle’s Minimum Essential Medium and Hela and U2OS cells in Dulbecco’s modified Eagle’s high glucose medium (DMEM) supplemented with 10% (vol/vol) fetal bovine serum (FBS) and 1% antibiotic/antimycotic (Lonza) in a humidified incubator with 10% CO2. All cell lines were purchased from ATCC and regularly checked for mycoplasma and cell authentication. SUM 149PT cells were cultured in F-12 Hams (Gibco) supplemented with 5% fetal bovine serum, insulin, and hydrocortisone. Colony formation assays were carried out in 6-well plates, 500 cells were used per well and following designated treatment, and colonies were grown for 2 weeks. Cells were fixed with methanol (100%), stained with crystal violet and analyzed using a GelCount instrument (Oxford Optronix Ltd). Crystal Violet C6158 was purchased from Sigma. PARG knockdown cells were generated by infecting MDA-MB-231 cells with shPARG lentiviral particles (sc-106355-V, Santa Cruz Biotechnology), which contain a pool of three shRNA plasmids. After 24 h infection, 3 µg/ml puromycin (Invitrogen) was added and antibiotic-resistant cells were further expanded and used for experimentation. Sequence-1; hairpin sequence: […], sense: […]tt, Antisense: […]tt. Sequence-2; hairpin sequence, […]-[…], sense: […]tt, antisense: […]tt. Sequence-3; hairpin sequence: […]-[…], sense: […]tt, antisense: […]-GGUUUCCtt. Control cells were generated using the same process except that scramble lentiviral particles with scrambled sequences were used (sc-108080).
(§5) Supplementary Fig. 8: Clonogenic survival of cells in the presence of PARGi and PARPi (a)
(§6) Clonogenic survival of PC3 cells in response to indicated compounds. ( b) Clonogenic survival of
(§7) MDA-MB-231 cells in response to i ndicated compounds. (c) Clonogenic survival of MCF -7 cells
(§8) in response to indicated compounds. […]

[4] = test system: MDA-MB-231 cells; test: Clonogenic survival assay; format: cell-based, human; conditions: for colony count (clonogenic survival, raw replicate data, Supplementary Figure 8): MDA-MB-231
Protocol: as §3, §4, §5, §6, §7, §8

[5] = Sulforhodamine B (SRB) cytotoxicity assay; conditions: human, PC3 cells, Viability; for viability at 72 h, 1.95 µM: log [concentration] μM 0.291; for viability at 72 h, 3.9 µM: log [concentration] μM 0.592; for viability at 72 h, 7.8 µM: log [concentration] μM 0.893; for viability at 72 h, 15.6 µM: log [concentration] μM 1.194; for viability at 72 h, 31.3 µM: log [concentration] μM 1.495; for viability at 72 h, 62.5 µM: log [concentration] μM 1.796; for viability at 72 h, 125 µM: log [concentration] μM 2.097; for viability at 72 h, 250 µM: log [concentration] μM 2.398; for viability at 72 h, 500 µM: log [concentration] μM 2.699; for viability at 72 h, 0.98 µM: log [concentration] μM -0.01; for viability at 72 h, 0.49 µM: log [concentration] μM -0.312; for viability at 72 h, 0.244 µM: log [concentration] μM -0.613
[6] = test system: PC3 cells; test: Sulforhodamine B (SRB) cytotoxicity assay; conditions: Homo sapiens, PC-3, 72 h
[7] = 10 µM JA2131 2 h, 7 Gy IR, ~2 weeks

## Cn1c(=S)c2[nH]c(SCCN3CCOCC3)nc2n(C)c1=O [JA2131]
[1]
  viability at 72 h, 0.244 µM: 100%
  viability at 72 h, 0.488 µM: 98.3%
  viability at 72 h, 0.977 µM: 99.4%
  viability at 72 h, 1.95 µM: 101%
  viability at 72 h, 3.91 µM: 104%
  viability at 72 h, 7.82 µM: 96.7%
  viability at 72 h, 15.6 µM: 95.9%
  viability at 72 h, 31.3 µM: 78.7%
  viability at 72 h, 62.5 µM: 53.3%
  viability at 72 h, 125 µM: 16.6%
  viability at 72 h, 250 µM: 14.4%
  viability at 72 h, 500 µM: 13.5%
[2]
  IC50: 55.3 ± 7.9 µM
[3]; [7]
  Surviving Fraction: 0.7713 and 0.7545 and 0.8277 and 0.7845
  clonogenic survival (Exp-1 to Exp-4): 77.1344 and 75.4495 and 82.7709 and 78.4516
[3]; JA2131 0.5 uM
  surviving colonies, Replicates: 47 and 58 and 49 and 56 and 83 and 61
[3]; JA2131 1 uM
  surviving colonies, Replicates: 9 and 48 and 34 and 20 and 62 and 2
[3]; JA2131 5 uM
  surviving colonies, Replicates: 1 and 29 and 2 (2×) and 24 and 0
[3]; JA2131 10 uM
  surviving colonies, Replicates: 2 and 15 and 14 and 0 and 21 and 5
[4]; 10 µM JA2131 2 h, 3 Gy IR, ~2 weeks
  Surviving Fraction: 0.4526 and 0.3681 and 0.2687 and 0.3631
[4]; Experiment-1, replicates 1-6
  colony count (clonogenic survival, raw replicate data, Supplementary Figure 8): 76 (2×) and 74 and 77 and 70 and 85
[4]; Experiment-2, replicates 1-6
  colony count (clonogenic survival, raw replicate data, Supplementary Figure 8): 61 (3×) and 68 and 76 and 65
[4]; Experiment-3, replicates 1-6
  colony count (clonogenic survival, raw replicate data, Supplementary Figure 8): 34 and 25 and 20 and 47 and 33 and 35
[5]; +IR 7 Gy
  viability at 72 h, 1.95 µM: 104%
  viability at 72 h, 3.9 µM: 99.5%
  viability at 72 h, 7.8 µM: 103%
  viability at 72 h, 15.6 µM: 96.6%
  viability at 72 h, 31.3 µM: 76.7%
  viability at 72 h, 62.5 µM: 32.5%
  viability at 72 h, 125 µM: 13.6%
  viability at 72 h, 250 µM: 16.8%
  viability at 72 h, 500 µM: 13%
  viability at 72 h, 0.98 µM: 102%
  viability at 72 h, 0.49 µM: 100%
  viability at 72 h, 0.244 µM: 100%
[5]; without IR
  viability at 72 h, 1.95 µM: 97.5%
  viability at 72 h, 3.9 µM: 97.3%
  viability at 72 h, 7.8 µM: 94.1%
  viability at 72 h, 15.6 µM: 88.1%
  viability at 72 h, 31.3 µM: 57.2%
  viability at 72 h, 62.5 µM: 6.73%
  viability at 72 h, 125 µM: 4.07%
  viability at 72 h, 250 µM: 4.3%
  viability at 72 h, 500 µM: 4.21%
  viability at 72 h, 0.98 µM: 99.2%
  viability at 72 h, 0.49 µM: 98.7%
  viability at 72 h, 0.244 µM: 100%
[6]; with 7 Gy IR
  IC50: 41.6 ± 3 µM
[6]; without IR
  IC50: 33 ± 2.4 µM
